# Data published in US8334287B2 (Hoffmann-La Roche Inc., priority 2009, dated 2012).
# Molecular target: T1, human mGlu5a receptor (Homo sapiens, UniProt P41594)
# T1 construct: expressed in transfected cells; host or cells: EBNA cells (transient transfection); membranes prepared from them
# Assay: mGlu5a receptor binding, displacement of [3H]MPEP
# Conditions: competing radioligand [3H]MPEP; human mGlu5a receptor transiently transfected into EBNA cells; Ki=IC50/1+L/Kd
# Experimental: For binding experiments, cDNA encoding human mGlu5a receptor was transiently transfected into EBNA cells using a procedure described by E.-J. Schlaeger and K. Christensen (Cytotechnology 1998, 15, 1-13). For functional assays, [Ca^2+]i measurements were performed largely as described previously (Porter et al., Br J. Pharmacol 1999, 128, 13-20) on stably expressed recombinant human mGlu 5a receptors in HEK-293 cells. The cells were dye loaded using Fluo 4-AM (purchased from Molecular Probes, 2 μM final concentration) [Ca^2+]i measurements were performed using a fluorometric imaging plate reader (FLIPR, Molecular Devices Corporation, La Jolla, Calif., USA). Antagonist evaluation was performed following a 5 minute preincubation with the test compounds followed by the addition of a submaximal addition of agonist.
# The inhibition (antagonists) curves were fitted with a four parameter logistic equation giving IC50, and Hill coefficient using the iterative non linear curve fitting software Xcel fit.
# The Ki values of the compounds tested are given. The Ki value is defined by the following formula: Ki=IC50/1+L/Kd in which the IC50 values are those concentrations of the compounds tested in which causes 50% inhibition of the competing radioligand ([^3H]MPEP). [L] is the concentration of radioligand used in the binding experiment and the Kd value of the radioligand is empiracally determined for each batch of membranes prepared.
# T1 sequence (P41594 21-1180 isoform P41594-2 limits assumed): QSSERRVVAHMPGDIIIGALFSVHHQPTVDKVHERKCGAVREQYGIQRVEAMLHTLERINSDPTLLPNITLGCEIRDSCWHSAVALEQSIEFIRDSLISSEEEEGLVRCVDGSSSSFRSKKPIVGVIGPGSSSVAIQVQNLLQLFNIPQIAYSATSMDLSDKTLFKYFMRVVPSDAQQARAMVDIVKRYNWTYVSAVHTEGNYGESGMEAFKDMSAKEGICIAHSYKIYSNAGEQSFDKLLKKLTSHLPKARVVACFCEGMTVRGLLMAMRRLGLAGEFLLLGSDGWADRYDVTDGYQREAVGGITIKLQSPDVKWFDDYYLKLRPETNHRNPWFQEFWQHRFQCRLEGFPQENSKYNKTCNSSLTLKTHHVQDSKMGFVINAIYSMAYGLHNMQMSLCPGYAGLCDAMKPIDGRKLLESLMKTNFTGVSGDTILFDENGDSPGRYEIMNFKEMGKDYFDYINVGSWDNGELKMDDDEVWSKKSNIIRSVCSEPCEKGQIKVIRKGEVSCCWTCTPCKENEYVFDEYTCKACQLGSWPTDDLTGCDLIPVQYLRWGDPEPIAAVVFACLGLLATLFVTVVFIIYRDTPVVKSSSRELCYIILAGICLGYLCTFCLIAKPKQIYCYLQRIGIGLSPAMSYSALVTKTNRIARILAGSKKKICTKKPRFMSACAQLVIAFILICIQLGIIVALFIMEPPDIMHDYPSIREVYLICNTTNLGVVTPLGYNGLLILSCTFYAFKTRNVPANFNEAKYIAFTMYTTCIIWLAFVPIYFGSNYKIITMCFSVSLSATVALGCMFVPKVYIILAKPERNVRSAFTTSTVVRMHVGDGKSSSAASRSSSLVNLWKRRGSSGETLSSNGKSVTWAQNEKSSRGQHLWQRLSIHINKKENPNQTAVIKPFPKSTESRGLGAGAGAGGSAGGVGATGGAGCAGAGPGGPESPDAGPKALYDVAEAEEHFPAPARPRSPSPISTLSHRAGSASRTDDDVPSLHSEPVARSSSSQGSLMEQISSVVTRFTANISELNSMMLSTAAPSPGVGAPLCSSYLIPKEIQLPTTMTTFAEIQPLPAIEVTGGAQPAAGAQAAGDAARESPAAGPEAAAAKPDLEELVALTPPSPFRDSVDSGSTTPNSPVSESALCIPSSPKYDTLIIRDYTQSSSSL
row,Compound,Ki [nM]
1,"Cc1nc(C#Cc2ccnc(Cl)c2)cn1-c1cccc(=O)n1C [Example 18, 6-[4-(2-chloro-pyridin-4-ylethynyl)-2-methyl-imidazol-1-yl]-1-methyl-1H-pyridin-2-one]",559
2,"COCCn1ccc(-n2c(C)nc(C#Cc3cccc(Cl)c3)c2C)cc1=O [Example 29, 4-[4-(3-chloro-phenylethynyl)-2,5-dimethyl-imidazol-1-yl]-1-(2-methoxy-ethyl)-1H-pyridin-2-one]",58
3,"CCn1ccc(-n2cc(C#Cc3cccc(C)c3)nc2C)cc1=O [Example 10, 1-Ethyl-4-(2-methyl-4-m-tolylethynyl-imidazol-1-yl)-1H-pyridin-2-one]",75
4,"Cc1nc(C#Cc2ccnc(Cl)c2)cn1-c1ccn(C)c(=O)c1 [Example 7, 4-[4-(2-chloro-pyridin-4-ylethynyl)-2-methyl-imidazol-1-yl]-1-methyl-1H-pyridin-2-one]",180
5,"Cc1nc(C#Cc2cccc(Cl)c2)c(C)n1-c1cnn(C)c(=O)c1 [Example 42, 5-[4-(3-chloro-phenylethynyl)-2,5-dimethyl-imidazol-1-yl]-2-methyl-2H-pyridazin-3-one]",38
6,"Cc1cccc(C#Cc2cn(-c3cnn(C)c(=O)c3)c(C)n2)c1 [Example 23, 2-Methyl-5-(2-methyl-4-m-tolylethynyl-imidazol-1-yl)-2H-pyridazin-3-one]",52
7,"COCCn1ccc(-n2cc(C#Cc3cccc(Cl)c3)nc2C)cc1=O [Example 5, 4-[4-(3-chloro-phenylethynyl)-2-methyl-imidazol-1-yl]-1-(2-methoxy-ethyl)-1H-pyridin-2-one]",44
8,"Cc1nc(C#Cc2ccnc(Cl)c2)cn1-c1cc[nH]c(=O)c1 [Example 6, 4-[4-(2-chloro-pyridin-4-ylethynyl)-2-methyl-imidazol-1-yl]-1H-pyridin-2-one]",146
9,"Cc1nc(C#Cc2ccnc(Cl)c2)c(C)n1-c1cc(=O)n(C)cn1 [Example 46, 6-[4-(2-chloro-pyridin-4-ylethynyl)-2,5-dimethyl-imidazol-1-yl]-3-methyl-3H-pyrimidin-4-one]",569
10,"CCn1ccc(-n2c(C)nc(C#Cc3cccc(Cl)c3)c2C)cc1=O [Example 27, 4-[4-(3-chloro-phenylethynyl)-2,5-dimethyl-imidazol-1-yl]-1-ethyl-1H-pyridin-2-one]",40
11,"CNC(=O)Cn1ccc(-n2cc(C#Cc3cccc(C)c3)nc2C)cc1=O [Example 48, N-methyl-2-[4-(2-methyl-4-m-tolylethynyl-imidazol-1-yl)-2-oxo-2H-pyridin-1-yl]-acetamide]",788
12,"Cc1nc(C#Cc2ccnc(Cl)c2)cn1-c1cncc(=O)n1C [Example 20, 6-[4-(2-chloro-pyridin-4-ylethynyl)-2-methyl-imidazol-1-yl]-1-methyl-1H-pyrazin-2-one]",817
13,"CCn1ccc(-n2c(C)nc(C#Cc3ccnc(Cl)c3)c2C)cc1=O [Example 37, 4-[4-(2-chloro-pyridin-4-ylethynyl)-2,5-dimethyl-imidazol-1-yl]-1-ethyl-1H-pyridin-2-one]",238
14,Cc1cccc(C#Cc2cn(-c3ccn(CS(C)(=O)=O)c(=O)c3)c(C)n2)c1 [Example 50],559
15,"Cc1nc(C#Cc2cccc(Cl)c2)cn1-c1ccn(CCO)c(=O)c1 [Example 4, 4-[4-(3-chloro-phenylethynyl)-2-methyl-imidazol-1-yl]-1-(2-hydroxy-ethyl)-1H-pyridin-2-one]",345
16,"Cc1nc(C#Cc2ccnc(Cl)c2)c(C)n1-c1ccn(C)c(=O)c1 [Example 36, 4-[4-(2-chloro-pyridin-4-ylethynyl)-2,5-dimethyl-imidazol-1-yl]-1-methyl-1H-pyridin-2-one]",173
17,"CCOC(=O)Cn1ccc(-n2cc(C#Cc3cccc(C)c3)nc2C)cc1=O [Example 13, [4-(2-Methyl-4-m-tolylethynyl-imidazol-1-yl)-2-oxo-2H-pyridin-1-yl]-acetic acid ethyl ester]",94
18,"Cc1nc(C#Cc2cccc(F)c2)c(C)n1-c1ccn(C)c(=O)c1 [Example 41, 4-[4-(3-fluoro-phenylethynyl)-2,5-dimethyl-imidazol-1-yl]-1-methyl-1H-pyridin-2-one]",52
19,"Cc1cccc(C#Cc2nc(C)n(-c3cc(=O)n(C)cn3)c2C)c1 [Example 45, 6-(2,5-dimethyl-4-m-tolylethynyl-imidazol-1-yl)-3-methyl-3H-pyrimidin-4-one]",74
20,"Cc1cccc(C#Cc2cn(-c3cc[nH]c(=O)c3)c(C)n2)c1 [Example 8, 4-(2-Methyl-4-m-tolylethynyl-imidazol-1-yl)-1H-pyridin-2-one]",113
21,"COCCn1ccc(-n2cc(C#Cc3cccc(C)c3)nc2C)cc1=O [Example 12, 1-(2-Methoxy-ethyl)-4-(2-methyl-4-m-tolylethynyl-imidazol-1-yl)-1H-pyridin-2-one]",40
22,"COCCn1ncc(-n2cc(C#Cc3cccc(Cl)c3)nc2C)cc1=O [Example 55, 5-[4-(3-Chloro-phenylethynyl)-2-methyl-imidazol-1-yl]-2-(2-methoxy-ethyl)-2H-pyridazin-3-one]",93
23,"Cc1cccc(C#Cc2cn(-c3ccn(C)c(=O)c3)c(C)n2)c1 [Example 9, 1-Methyl-4-(2-methyl-4-m-tolylethynyl-imidazol-1-yl)-1H-pyridin-2-one]",42
24,"Cc1nc(C#Cc2cccc(Cl)c2)cn1-c1cccc(O)n1 [Example 14, 6-[4-(3-chloro-phenylethynyl)-2-methyl-imidazol-1-yl]-pyridin-2-ol]",42
25,"COCCn1ccc(-n2c(C)nc(C#Cc3cccc(C)c3)c2C)cc1=O [Example 34, 4-[2,5-dimethyl-4-m-tolylethynyl-imidazol-1-yl]-1-(2-methoxy-ethyl)-1H-pyridin-2-one]",87
26,"COCCn1ncc(-n2cc(C#Cc3cccc(C)c3)nc2C)cc1=O [Example 54, 2-(2-methoxy-ethyl)-5-(2-methyl-4-m-tolylethynyl-imidazol-1-yl)-2H-pyridazin-3-one]",131

# The remaining compounds from weak to strong by Ki, led by results:
row,Ki [nM],Compound
1,659,"Cc1nc(C#Cc2cccc(Cl)c2)cn1-c1cncc(=O)[nH]1 [Example 16, 6-[4-(3-chloro-phenylethynyl)-2-methyl-imidazol-1-yl]-1H-pyrazin-2-one]"
2,597,COCCn1ncc(-n2cc(C#Cc3ccnc(Cl)c3)nc2C)cc1=O [Example 56]
3,504,"Cc1nc(C#Cc2ccnc(Cl)c2)cn1-c1cncc(=O)[nH]1 [Example 19, 6-[4-(2-chloro-pyridin-4-ylethynyl)-2-methyl-imidazol-1-yl]-1H-pyrazin-2-one]"
4,446,"Cc1cccc(C#Cc2nc(C)n(-c3ccn(CCO)c(=O)c3)c2C)c1 [Example 33, 4-[2,5-dimethyl-4-m-tolylethynyl-imidazol-1-yl]-1-(2-hydroxy-ethyl)-1H-pyridin-2-one]"
5,384,"Cc1nc(C#Cc2ccnc(Cl)c2)cn1-c1cnn(C)c(=O)c1 [Example 22, 5-[4-(2-chloro-pyridin-4-ylethynyl)-2-methyl-imidazol-1-yl]-2-methyl-2H-pyridazin-3-one]"
6,347,"Cc1nc(C#Cc2ccnc(Cl)c2)c(C)n1-c1cc[nH]c(=O)c1 [Example 35, 4-[4-(2-chloro-pyridin-4-ylethynyl)-2,5-dimethyl-imidazol-1-yl]-1H-pyridin-2-one]"
7,306,"Cc1nc(C#Cc2ccnc(Cl)c2)c(C)n1-c1cnn(C)c(=O)c1 [Example 43, 5-[4-(2-chloro-pyridin-4-ylethynyl)-2,5-dimethyl-imidazol-1-yl]-2-methyl-2H-pyridazin-3-one]"
8,285,"COCCn1ccc(-n2c(C)nc(C#Cc3ccnc(Cl)c3)c2C)cc1=O [Example 39, 4-[4-(2-chloro-pyridin-4-ylethynyl)-2,5-dimethyl-imidazol-1-yl]-1-(2-methoxy-ethyl)-1H-pyridin-2-one]"
9,265,"Cc1cccc(C#Cc2cn(-c3ccn(CCO)c(=O)c3)c(C)n2)c1 [Example 11, 1-(2-Hydroxy-ethyl)-4-(2-methyl-4-m-tolylethynyl-imidazol-1-yl)-1H-pyridin-2-one]"
10,211,"Cc1cccc(C#Cc2nc(C)n(-c3cc[nH]c(=O)c3)c2C)c1 [Example 30, 4-(2,5-dimethyl-4-m-tolylethynyl-imidazol-1-yl)-1H-pyridin-2-one]"
11,204,"CCn1ncc(-n2cc(C#Cc3ccnc(Cl)c3)nc2C)cc1=O [Example 53, 5-[4-(2-chloro-pyridin-4-ylethynyl)-2-methyl-imidazol-1-yl]-2-ethyl-2H-pyridazin-3-one]"
12,154,"Cc1nc(C#Cc2cccc(Cl)c2)cn1-c1cccc(=O)n1C [Example 15, 6-[4-(3-chloro-phenylethynyl)-2-methyl-imidazol-1-yl]-1-methyl-1H-pyridin-2-one]"
13,144,"Cc1nc(C#Cc2ccnc(Cl)c2)cn1-c1cccc(O)n1 [Example 17, 6-[4-(2-chloro-pyridin-4-ylethynyl)-2-methyl-imidazol-1-yl]-pyridin-2-ol]"
14,71,"Cc1cccc(C#Cc2nc(C)n(-c3cnn(C)c(=O)c3)c2C)c1 [Example 44, 5-(2,5-dimethyl-4-m-tolylethynyl-imidazol-1-yl)-2-methyl-2H-pyridazin-3-one]"
15,39,"CCn1ccc(-n2cc(C#Cc3cccc(Cl)c3)nc2C)cc1=O [Example 3, 4-[4-(3-chloro-phenylethynyl)-2-methyl-imidazol-1-yl]-1-ethyl-1H-pyridin-2-one]"
